Data as given in ChEMBL document CHEMBL4004849, “Tetrazolylmethyl quinolines: Design, docking studies, synthesis, anticancer and antifungal analyses” (2017).
≈ marks a conversion by molar mass, not a printed value. Calls of active or inactive are those of the source. No cut-off for these calls is given here.

Columns and labels:
Format in all cases: functional
HL-60(TB) = assay: Growth inhibition of human HL-60(TB) cells at 10^-5 M incubated for 48 hrs by sulforhodamine B assay relative to control
MOLT-4 = assay: Growth inhibition of human MOLT4 cells at 10^-5 M incubated for 48 hrs by sulforhodamine B assay relative to control
SR = assay: Growth inhibition of human SR cells at 10^-5 M incubated for 48 hrs by sulforhodamine B assay relative to control
A549 = assay: Growth inhibition of human A549/ATCC cells at 10^-5 M incubated for 48 hrs by sulforhodamine B assay relative to control
EKVX = assay: Growth inhibition of human EKVX cells at 10^-5 M incubated for 48 hrs by sulforhodamine B assay relative to control
NCI-H226 = assay: Growth inhibition of human NCI-H226 cells at 10^-5 M incubated for 48 hrs by sulforhodamine B assay relative to control
NCI-H522 = assay: Growth inhibition of human NCI-H522 cells at 10^-5 M incubated for 48 hrs by sulforhodamine B assay relative to control
COLO 205 = assay: Growth inhibition of human COLO205 cells at 10^-5 M incubated for 48 hrs by sulforhodamine B assay relative to control
HCC 2998 = assay: Growth inhibition of human HCC2998 cells at 10^-5 M incubated for 48 hrs by sulforhodamine B assay relative to control
HCT-116 = assay: Growth inhibition of human HCT116 cells at 10^-5 M incubated for 48 hrs by sulforhodamine B assay relative to control
HCT-15 = assay: Growth inhibition of human HCT15 cells at 10^-5 M incubated for 48 hrs by sulforhodamine B assay relative to control
HT-29 = assay: Growth inhibition of human HT-29 cells at 10^-5 M incubated for 48 hrs by sulforhodamine B assay relative to control
KM12 = assay: Growth inhibition of human KM12 cells at 10^-5 M incubated for 48 hrs by sulforhodamine B assay relative to control
SF-268 = assay: Growth inhibition of human SF268 cells at 10^-5 M incubated for 48 hrs by sulforhodamine B assay relative to control
SF-295 = assay: Growth inhibition of human SF295 cells at 10^-5 M incubated for 48 hrs by sulforhodamine B assay relative to control
SF-539 = assay: Growth inhibition of human SF539 cells at 10^-5 M incubated for 48 hrs by sulforhodamine B assay relative to control
SNB-19 = assay: Growth inhibition of human SNB19 cells at 10^-5 M incubated for 48 hrs by sulforhodamine B assay relative to control
SNB-75 = assay: Growth inhibition of human SNB75 cells at 10^-5 M incubated for 48 hrs by sulforhodamine B assay relative to control
U-251 = assay: Growth inhibition of human U251 cells at 10^-5 M incubated for 48 hrs by sulforhodamine B assay relative to control
LOX IMVI = assay: Growth inhibition of human LOXIMVI cells at 10^-5 M incubated for 48 hrs by sulforhodamine B assay relative to control
Malme-3M = assay: Growth inhibition of human MALME-3M cells at 10^-5 M incubated for 48 hrs by sulforhodamine B assay relative to control
M14 = assay: Growth inhibition of human M14 cells at 10^-5 M incubated for 48 hrs by sulforhodamine B assay relative to control
MDA-MB-435 = assay: Growth inhibition of human MDA-MB-435 cells at 10^-5 M incubated for 48 hrs by sulforhodamine B assay relative to control
SK-MEL-2 = assay: Growth inhibition of human SK-MEL-2 cells at 10^-5 M incubated for 48 hrs by sulforhodamine B assay relative to control
SK-MEL-28 = assay: Growth inhibition of human SK-MEL-28 cells at 10^-5 M incubated for 48 hrs by sulforhodamine B assay relative to control
SK-MEL-5 = assay: Growth inhibition of human SK-MEL-5 cells at 10^-5 M incubated for 48 hrs by sulforhodamine B assay relative to control
UACC-257 = assay: Growth inhibition of human UACC257 cells at 10^-5 M incubated for 48 hrs by sulforhodamine B assay relative to control
OVCAR-3 = assay: Growth inhibition of human OVCAR3 cells at 10^-5 M incubated for 48 hrs by sulforhodamine B assay relative to control
OVCAR-4 = assay: Growth inhibition of human OVCAR4 cells at 10^-5 M incubated for 48 hrs by sulforhodamine B assay relative to control
OVCAR-5 = assay: Growth inhibition of human OVCAR5 cells at 10^-5 M incubated for 48 hrs by sulforhodamine B assay relative to control
NCI/ADR-RES = assay: Growth inhibition of human NCI-ADR-RES cells at 10^-5 M incubated for 48 hrs by sulforhodamine B assay relative to control
SK-OV-3 = assay: Growth inhibition of human SKOV3 cells at 10^-5 M incubated for 48 hrs by sulforhodamine B assay relative to control
786-0 = assay: Growth inhibition of human 786-0 cells at 10^-5 M incubated for 48 hrs by sulforhodamine B assay relative to control
CAKI-1 = assay: Growth inhibition of human Caki1 cells at 10^-5 M incubated for 48 hrs by sulforhodamine B assay relative to control
UO-31 = assay: Growth inhibition of human UO31 cells at 10^-5 M incubated for 48 hrs by sulforhodamine B assay relative to control
MCF7 = assay: Growth inhibition of human MCF7 cells at 10^-5 M incubated for 48 hrs by sulforhodamine B assay relative to control
MDA-MB-231 = assay: Growth inhibition of human MDA-MB-231/ATCC cells at 10^-5 M incubated for 48 hrs by sulforhodamine B assay relative to control
Hs-578T = assay: Growth inhibition of human Hs 578T cells at 10^-5 M incubated for 48 hrs by sulforhodamine B assay relative to control
BT-549 = assay: Growth inhibition of human BT549 cells at 10^-5 M incubated for 48 hrs by sulforhodamine B assay relative to control
T47D = assay: Growth inhibition of human T47D cells at 10^-5 M incubated for 48 hrs by sulforhodamine B assay relative to control
MDA-MB-468 = assay: Growth inhibition of human MDA-MB-468 cells at 10^-5 M incubated for 48 hrs by sulforhodamine B assay relative to control
Candida albicans = assay: Antifungal activity against Candida albicans after 24 hrs by serial dilution method
Aspergillus fumigatus [1] = assay: Antifungal activity against Aspergillus fumigatus at 100 ug/ml by disc diffusion method; details: read-out: IZ
Aspergillus fumigatus [2] = assay: Antifungal activity against Aspergillus fumigatus after 24 hrs by serial dilution method

Clc1nc2ccc(Br)cc2cc1Cn1nnnc1CSc1ccccc1
growth inhibition (GI) (HL-60(TB)): Active | growth inhibition (GI) (MOLT-4): Active | growth inhibition (GI) (SR): Active | growth inhibition (GI) (A549): Active | growth inhibition (GI) (EKVX): Active | growth inhibition (GI) (NCI-H226): Active | growth inhibition (GI) (NCI-H522): Active | growth inhibition (GI) (COLO 205): Active | growth inhibition (GI) (HCC 2998): Active | growth inhibition (GI) (HCT-116): Active | growth inhibition (GI) (HCT-15): Active | growth inhibition (GI) (HT-29): Active | growth inhibition (GI) (KM12): Active | growth inhibition (GI) (SF-268): Active | growth inhibition (GI) (SF-295): Active | growth inhibition (GI) (SF-539): Active | growth inhibition (GI) (SNB-19): Active | growth inhibition (GI) (SNB-75): Active | growth inhibition (GI) (U-251): Active | growth inhibition (GI) (LOX IMVI): Active | growth inhibition (GI) (Malme-3M): Active | growth inhibition (GI) (M14): Active | growth inhibition (GI) (MDA-MB-435): Active | growth inhibition (GI) (SK-MEL-2): Active | growth inhibition (GI) (SK-MEL-28): Active | growth inhibition (GI) (SK-MEL-5): Active | growth inhibition (GI) (UACC-257): Active | growth inhibition (GI) (OVCAR-3): Active | growth inhibition (GI) (OVCAR-4): Active | growth inhibition (GI) (OVCAR-5): Active | growth inhibition (GI) (NCI/ADR-RES): Active | growth inhibition (GI) (SK-OV-3): Active | growth inhibition (GI) (786-0): Active | growth inhibition (GI) (CAKI-1): Active | growth inhibition (GI) (UO-31): Active | growth inhibition (GI) (MCF7): Active | growth inhibition (GI) (MDA-MB-231): Active | growth inhibition (GI) (Hs-578T): Active | growth inhibition (GI) (BT-549): Active | growth inhibition (GI) (T47D): Active | growth inhibition (GI) (MDA-MB-468): Active | MIC (Candida albicans): 25 µg/mL (≈ 56 µM) | zone of inhibition at 100 µg/mL (Aspergillus fumigatus [1]): 20 mm | MIC (Aspergillus fumigatus [2]): 5 µg/mL (≈ 11.2 µM)

COc1ccc2nc(Cl)c(Cn3nnc(Cc4ccccc4)n3)cc2c1
inhibition of growth at 10 µM (HL-60(TB); HL-60, 48 h, read-out: GI): 43.4% | inhibition of growth at 10 µM (MOLT-4; MOLT-4, 48 h, read-out: GI): 89.7% | inhibition of growth at 10 µM (SR; read-out: GI): 77.1% | inhibition of growth at 10 µM (A549; A549, 48 h, read-out: GI): 68.5% | inhibition of growth at 10 µM (EKVX; read-out: GI): 75.5% | inhibition of growth at 10 µM (NCI-H226; NCI-H226, 48 h, read-out: GI): 61% | inhibition of growth at 10 µM (NCI-H522; NCI-H522, 48 h, read-out: GI): 62% | inhibition of growth at 10 µM (COLO 205; COLO 205, 48 h, read-out: GI): 75.1% | inhibition of growth at 10 µM (HCC 2998; HCC 2998, 48 h, read-out: GI): 41% | inhibition of growth at 10 µM (HCT-116; HCT-116, 48 h, read-out: GI): 70.8% | inhibition of growth at 10 µM (HCT-15; HCT-15, 48 h, read-out: GI): 63.5% | inhibition of growth at 10 µM (HT-29; HT-29, 48 h, read-out: GI): 72.6% | inhibition of growth at 10 µM (KM12; KM12, 48 h, read-out: GI): 63.5% | inhibition of growth at 10 µM (SF-268; SF-268, 48 h, read-out: GI): 48.5% | inhibition of growth at 10 µM (SF-295; SF-295, 48 h, read-out: GI): 62.6% | inhibition of growth at 10 µM (SF-539; SF-539, 48 h, read-out: GI): 32.5% | inhibition of growth at 10 µM (SNB-19; SNB-19, 48 h, read-out: GI): 42% | inhibition of growth at 10 µM (SNB-75; SNB-75, 48 h, read-out: GI): 42.9% | inhibition of growth at 10 µM (U-251; U-251, 48 h, read-out: GI): 46.8% | inhibition of growth at 10 µM (LOX IMVI; read-out: GI): 57.1% | inhibition of growth at 10 µM (Malme-3M; read-out: GI): 65.6% | inhibition of growth at 10 µM (M14; M14, 48 h, read-out: GI): 69.7% | inhibition of growth at 10 µM (MDA-MB-435; MDA-MB-435, 48 h, read-out: GI): 70.7% | inhibition of growth at 10 µM (SK-MEL-2; SK-MEL-2, 48 h, read-out: GI): 50.4% | inhibition of growth at 10 µM (SK-MEL-28; SK-MEL-28, 48 h, read-out: GI): 52.5% | inhibition of growth at 10 µM (SK-MEL-5; SK-MEL-5, 48 h, read-out: GI): 147% | inhibition of growth at 10 µM (UACC-257; UACC-257, 48 h, read-out: GI): 73.5% | inhibition of growth at 10 µM (OVCAR-3; OVCAR-3, 48 h, read-out: GI): 50.1% | inhibition of growth at 10 µM (OVCAR-4; OVCAR-4, 48 h, read-out: GI): 80.3% | inhibition of growth at 10 µM (OVCAR-5; OVCAR-5, 48 h, read-out: GI): 17.2% | inhibition of growth at 10 µM (NCI/ADR-RES; read-out: GI): 79.9% | inhibition of growth at 10 µM (SK-OV-3; SK-OV-3, 48 h, read-out: GI): 50.6% | inhibition of growth at 10 µM (786-0; 786-0, 48 h, read-out: GI): 52.5% | inhibition of growth at 10 µM (CAKI-1; CAKI-1, 48 h, read-out: GI): 56.1% | inhibition of growth at 10 µM (UO-31; UO-31, 48 h, read-out: GI): 85.3% | inhibition of growth at 10 µM (MCF7; MCF7, 48 h, read-out: GI): 72.1% | inhibition of growth at 10 µM (MDA-MB-231; MDA-MB-231, 48 h, read-out: GI): 49.3% | inhibition of growth at 10 µM (Hs-578T; read-out: GI): 31.1% | inhibition of growth at 10 µM (BT-549; BT-549, 48 h, read-out: GI): 79.7% | inhibition of growth at 10 µM (T47D; read-out: GI): 97.6% | inhibition of growth at 10 µM (MDA-MB-468; MDA-MB-468, 48 h, read-out: GI): 70.1% | MIC (Candida albicans): 10 µg/mL (≈ 27.3 µM) | zone of inhibition at 100 µg/mL (Aspergillus fumigatus [1]): 20 mm | MIC (Aspergillus fumigatus [2]): 25 µg/mL (≈ 68.3 µM)
